Laboratory results published in patent US8450266B2 (Ipsen Pharma S.A.S., priority 2008, dated 2013).
Where a SMILES comes first, the peptide text is derived from it. [ ]: non-standard residue; d: D form. The star is where a group is joined. Cyclohexanecarbonyl = O=C(C1CCCCC1)*; Ac6c = NC1(C(=O)O)CCCCC1; Orn = NCCC[C@H](N)C(=O)O; X1 = CCCN1C(=O)CC(*)C1=O; Hexanoyl = CCCCCC(=O)*

Tests used:
[1] = Human plasma half-life assay (LC-MS); assay type: in vitro ADME; conditions: incubated at 37° C., read-out: Human Plasma T½ (converted)
How it was run: (§1)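 Aliquots taken from human or rat plasma at time points up to 72 h, quenched with formic acid and acetonitrile, centrifuged. Supernatant analyzed by LC-MS (ESI, positive ion, full scan) on a C8 column with a water/acetonitrile 1% formic acid gradient.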

[2] = Rat plasma half-life assay (LC-MS); assay type: in vitro ADME; conditions: incubated at 37° C., read-out: Rat Plasma T½ (converted)
How it was run: as §1

Row | SMILES | half-life at 0.1 mg/mL [1] | half-life at 0.1 mg/mL [2] | half-life at 0.1 mg/ml [1] | half-life at 0.1 mg/ml [2]
1 | CCCN1C(=O)CC(SC[C@H](NC(=O)[C@H](CC(N)=O)NC(=O)[C@H](Cc2c[nH]cn2)NC(=O)[C@H](CCCCN)NC(=O)[C@H](Cc2c[nH]c3ccccc23)NC(=O)[C@H](CC(=O)O)NC(=O)[C@H](CC(N)=O)NC(=O)[C@H](CCCCN)NC(=O)[C@H](CCCCN)NC(=O)CNC(=O)[C@H](CCCCN)NC(=O)[C@H](CCC(N)=O)NC(=O)[C@H](C)NC(=O)[C@H](CC(C)C)NC(=O)[C@H](CC(C)C)NC(=O)[C@H](Cc2c[nH]c3ccccc23)NC(=O)[C@H](CC(N)=O)NC(=O)[C@@H](NC(=O)[C@H](Cc2ccccc2)NC(=O)[C@H](CC(=O)O)NC(=O)[C@H](CCC(N)=O)NC(=O)[C@H](CCC(N)=O)NC(=O)[C@H](Cc2c[nH]cn2)NC(=O)[C@@H](NC(=O)[C@H](CCCCN)NC(=O)[C@H](CC(=O)O)NC(=O)[C@H](CCSC)NC(=O)[C@H](C)NC(=O)[C@@H](NC(=O)[C@H](CO)NC(=O)[C@H](Cc2ccc(O)cc2)NC(=O)[C@H](CC(=O)O)NC(=O)[C@H](CO)NC(=O)C2(NC(C)=O)CCCCC2)[C@@H](C)CC)[C@@H](C)CC)C(C)C)C(=O)N[C@H](C(=O)N[C@@H](CCC(N)=O)C(=O)O)[C@@H](C)O)C1=O (stereo partly shown) [Example 2, [Ac-A6c^7, Cys(Psu)^40]hGIP(7-42)-OH] (Ac-[Ac6c]SDYSIAMDKIHQQDFVNWLLAQKGKKNDWKHNC(X1)TQ-OH) | 13.7 h | 7.2 h |  | 
2 | CCCC[C@H](NC(=O)[C@H](C)NC(=O)[C@@H](NC(=O)[C@H](CO)NC(=O)[C@H](Cc1ccc(O)cc1)NC(=O)[C@H](CC(=O)O)NC(=O)[C@H](CO)NC(=O)[C@@H](NC(=O)[C@H](Cc1ccccc1)NC(=O)[C@@H](NC(=O)CNC(=O)[C@@H]1CCCN1C(=O)CCc1ccc(O)cc1)[C@@H](C)O)[C@@H](C)CC)[C@@H](C)CC)C(=O)N[C@@H](CC(=O)O)C(=O)N[C@@H](CCCCN)C(=O)N[C@H](C(=O)N[C@@H](Cc1c[nH]cn1)C(=O)N[C@@H](CCC(N)=O)C(=O)N[C@@H](CCC(N)=O)C(=O)N[C@@H](CC(=O)O)C(=O)N[C@@H](Cc1ccccc1)C(=O)N[C@H](C(=O)N[C@@H](CC(N)=O)C(=O)N[C@@H](Cc1c[nH]c2ccccc12)C(=O)N[C@@H](CC(C)C)C(=O)N[C@@H](CC(C)C)C(=O)N[C@@H](C)C(=O)N[C@@H](CCC(N)=O)C(=O)N[C@@H](CCCCN)C(=O)NCC(=O)N[C@@H](CCCCN)C(=O)N[C@@H](CCCCN)C(=O)N[C@@H](CC(N)=O)C(=O)N[C@@H](CC(=O)O)C(=O)N[C@@H](Cc1c[nH]c2ccccc12)C(=O)N[C@@H](CCCCN)C(=O)N[C@@H](Cc1c[nH]cn1)C(=O)N[C@@H](CC(N)=O)C(=O)N[C@H](C(=O)N[C@H](C(=O)N[C@@H](CCC(N)=O)C(=O)O)[C@@H](C)O)[C@@H](C)CC)C(C)C)[C@@H](C)CC [Example 43, (4Hppa^2, Pro^3, Nle^14)hGIP(2-42)-OH] | > 53 h | 2.3 h |  | 
3 | CC[C@H](C)[C@H](NC(=O)[C@H](CO)NC(=O)[C@H](Cc1ccc(O)cc1)NC(=O)[C@H](CC(=O)O)NC(=O)[C@H](CO)NC(=O)C1(NC(=O)[C@H](Cc2ccccc2)NC(C)=O)CCCCC1)C(=O)N[C@@H](C)C(=O)N[C@@H](CCSC)C(=O)N[C@@H](CC(=O)O)C(=O)N[C@@H](CCCCN)C(=O)N[C@H](C(=O)N[C@@H](Cc1c[nH]cn1)C(=O)N[C@@H](CCC(N)=O)C(=O)N[C@@H](CCC(N)=O)C(=O)N[C@@H](CC(=O)O)C(=O)N[C@@H](Cc1ccccc1)C(=O)N[C@H](C(=O)N[C@@H](CC(N)=O)C(=O)N[C@@H](Cc1c[nH]c2ccccc12)C(=O)N[C@@H](CC(C)C)C(=O)N[C@@H](CC(C)C)C(=O)N[C@@H](C)C(=O)N[C@@H](CCC(N)=O)C(=O)N[C@@H](CCCCN)C(N)=O)C(C)C)[C@@H](C)CC [Example 32, (Ac-Phe^6, A6c^7)hGIP(6-30)-NH2] | 24.1 h | 60.3 h |  | 
4 | CCCCCC(=O)N[C@@H](CO)C(=O)N[C@@H](CC(=O)O)C(=O)N[C@@H](Cc1ccc(O)cc1)C(=O)N[C@@H](CO)C(=O)N[C@H](C(=O)N[C@@H](C)C(=O)N[C@@H](CCSC)C(=O)N[C@@H](CC(=O)O)C(=O)N[C@@H](CCCCN)C(=O)N[C@H](C(=O)N[C@@H](Cc1c[nH]cn1)C(=O)N[C@@H](CCC(N)=O)C(=O)N[C@@H](CCC(N)=O)C(=O)N[C@@H](CC(=O)O)C(=O)N[C@@H](Cc1ccccc1)C(=O)N[C@H](C(=O)N[C@@H](CC(N)=O)C(=O)N[C@@H](Cc1c[nH]c2ccccc12)C(=O)N[C@@H](CC(C)C)C(=O)N[C@@H](CC(C)C)C(=O)N[C@@H](C)C(=O)N[C@@H](CCC(N)=O)C(=O)N[C@@H](CCCCN)C(=O)N[C@@H](CSC1CC(=O)N(CCC)C1=O)C(=O)N[C@@H](CCCCN)C(=O)N[C@@H](CCCCN)C(=O)N[C@@H](CC(N)=O)C(=O)N[C@@H](CC(=O)O)C(=O)N[C@@H](Cc1c[nH]c2ccccc12)C(=O)N[C@@H](CCCCN)C(=O)N[C@@H](Cc1c[nH]cn1)C(=O)N[C@@H](CC(N)=O)C(=O)N[C@H](C(=O)N[C@H](C(=O)N[C@@H](CCC(N)=O)C(=O)O)[C@@H](C)O)[C@@H](C)CC)C(C)C)[C@@H](C)CC)[C@@H](C)CC (stereo partly shown) [Example 41, [CH3-(CH2)4-C(O)-Ser^8, Cys(Psu)^31]hGIP(8-42)-OH] (Hexanoyl-SDYSIAMDKIHQQDFVNWLLAQKC(X1)KKNDWKHNITQ-OH) | 5.9 h | 3.7 h |  | 
5 | CCCCCC(=O)NCCC[C@H](NC(=O)[C@H](CCCCN)NC(=O)[C@H](CCC(N)=O)NC(=O)[C@H](C)NC(=O)[C@H](CC(C)C)NC(=O)[C@H](CC(C)C)NC(=O)[C@H](Cc1c[nH]c2ccccc12)NC(=O)[C@H](CC(N)=O)NC(=O)[C@@H](NC(=O)[C@H](Cc1ccccc1)NC(=O)[C@H](CC(=O)O)NC(=O)[C@H](CCC(N)=O)NC(=O)[C@H](CCC(N)=O)NC(=O)[C@H](Cc1c[nH]cn1)NC(=O)[C@@H](NC(=O)[C@H](CCCCN)NC(=O)[C@H](CC(=O)O)NC(=O)[C@H](CCSC)NC(=O)[C@H](C)NC(=O)[C@@H](NC(=O)[C@H](CO)NC(=O)[C@H](Cc1ccc(O)cc1)NC(=O)[C@H](CC(=O)O)NC(=O)[C@H](CO)NC(=O)C1(NC(=O)CCCCC)CCCCC1)[C@@H](C)CC)[C@@H](C)CC)C(C)C)C(=O)N[C@@H](CCCCN)C(=O)N[C@@H](CCCCN)C(=O)N[C@@H](CC(N)=O)C(=O)N[C@@H](CC(=O)O)C(=O)N[C@@H](Cc1c[nH]c2ccccc12)C(=O)N[C@@H](CCCCN)C(=O)N[C@@H](Cc1c[nH]cn1)C(=O)N[C@@H](CC(N)=O)C(=O)N[C@H](C(=O)N[C@H](C(=O)N[C@@H](CCC(N)=O)C(=O)O)[C@@H](C)O)[C@@H](C)CC [Example 18, [CH3-(CH2)4-C(O)-A6c^7, Orn^31(N-C(O)-(CH2)4-CH3)]hGIP(7-42)-OH] (Hexanoyl-[Ac6c]SDYSIAMDKIHQQDFVNWLLAQK[Orn](Hexanoyl)KKNDWKHNITQ-OH) |  |  | 13.8 h | 6.3 h
6 | CCCN1C(=O)CC(SC[C@H](NC(=O)[C@H](CCCCN)NC(=O)[C@H](CCC(N)=O)NC(=O)[C@H](C)NC(=O)[C@H](CC(C)C)NC(=O)[C@H](CC(C)C)NC(=O)[C@H](Cc2c[nH]c3ccccc23)NC(=O)[C@H](CC(N)=O)NC(=O)[C@@H](NC(=O)[C@H](Cc2ccccc2)NC(=O)[C@H](CC(=O)O)NC(=O)[C@H](CCC(N)=O)NC(=O)[C@H](CCC(N)=O)NC(=O)[C@H](Cc2c[nH]cn2)NC(=O)[C@@H](NC(=O)[C@H](CCCCN)NC(=O)[C@H](CC(=O)O)NC(=O)[C@H](CCSC)NC(=O)[C@H](C)NC(=O)[C@@H](NC(=O)[C@H](CO)NC(=O)[C@H](Cc2ccc(O)cc2)NC(=O)[C@H](CC(=O)O)NC(=O)[C@H](CO)NC(=O)C2(NC(C)=O)CCCCC2)[C@@H](C)CC)[C@@H](C)CC)C(C)C)C(=O)N[C@@H](CCCCN)C(=O)N[C@@H](CCCCN)C(=O)N[C@@H](CC(N)=O)C(N)=O)C1=O (stereo partly shown) [Example 28, (Ac-A6c^7, Cys(Psu)^31]hGIP(7-34)-NH2] | 8.8 h | 4.1 h |  | 
7 | CCCN1C(=O)CC(SC[C@H](NC(=O)[C@H](CCCCN)NC(=O)[C@H](CCC(N)=O)NC(=O)[C@H](C)NC(=O)[C@H](CC(C)C)NC(=O)[C@H](CC(C)C)NC(=O)[C@H](Cc2c[nH]c3ccccc23)NC(=O)[C@H](CC(N)=O)NC(=O)[C@@H](NC(=O)[C@H](Cc2ccccc2)NC(=O)[C@H](CC(=O)O)NC(=O)[C@H](CCC(N)=O)NC(=O)[C@H](CCC(N)=O)NC(=O)[C@H](Cc2c[nH]cn2)NC(=O)[C@@H](NC(=O)[C@H](CCCCN)NC(=O)[C@H](CC(=O)O)NC(=O)[C@H](CCSC)NC(=O)[C@H](C)NC(=O)[C@@H](NC(=O)[C@H](CO)NC(=O)[C@H](Cc2ccc(O)cc2)NC(=O)[C@H](CC(=O)O)NC(=O)[C@H](CO)NC(=O)C2(NC(C)=O)CCCCC2)[C@@H](C)CC)[C@@H](C)CC)C(C)C)C(N)=O)C1=O (stereo partly shown) [Example 29, [Ac-A6c^7, Cys(Psu)^31]hGIP(7-31)-NH2] | 12.2 h | 7 h |  | 
8 | CCCN1C(=O)CC(SC[C@H](NC(=O)[C@H](CCCCN)NC(=O)[C@H](CCC(N)=O)NC(=O)[C@H](C)NC(=O)[C@H](CC(C)C)NC(=O)[C@H](CC(C)C)NC(=O)[C@H](Cc2c[nH]c3ccccc23)NC(=O)[C@H](CC(N)=O)NC(=O)[C@@H](NC(=O)[C@H](Cc2ccccc2)NC(=O)[C@H](CC(=O)O)NC(=O)[C@H](CCC(N)=O)NC(=O)[C@H](CCC(N)=O)NC(=O)[C@H](Cc2c[nH]cn2)NC(=O)[C@@H](NC(=O)[C@H](CCCCN)NC(=O)[C@H](CC(=O)O)NC(=O)[C@H](CCSC)NC(=O)[C@H](C)NC(=O)[C@@H](NC(=O)[C@H](CO)NC(=O)[C@H](Cc2ccc(O)cc2)NC(=O)[C@H](CC(=O)O)NC(=O)[C@H](CO)NC(=O)C2CCCCC2)[C@@H](C)CC)[C@@H](C)CC)C(C)C)C(=O)N[C@@H](CCCCN)C(=O)N[C@@H](CCCCN)C(=O)N[C@@H](CC(N)=O)C(=O)N[C@@H](CC(=O)O)C(=O)N[C@@H](Cc2c[nH]c3ccccc23)C(=O)N[C@@H](CCCCN)C(=O)N[C@@H](Cc2c[nH]cn2)C(=O)N[C@@H](CC(N)=O)C(=O)N[C@H](C(=O)N[C@H](C(=O)N[C@@H](CCC(N)=O)C(=O)O)[C@@H](C)O)[C@@H](C)CC)C1=O (stereo partly shown) [Example 40, [Chc-Ser^8, Cys(Psu)^31]hGIP(8-42)-OH] (Cyclohexanecarbonyl-SDYSIAMDKIHQQDFVNWLLAQKC(X1)KKNDWKHNITQ-OH) | 4.1 h | 6.9 h |  | 
